# From article PMC11299271 (BMC Pharmacology & Toxicology, 2024)
# “And” between values parts separate entries of the source, which are not always exact repeats. Identical values can stand only once. Like-named read-outs stand apart in the source and are kept apart here.
# Key:
# [1] = cited from earlier work
# [2] = Plasma insulin concentration in T2DM rats (Rat INS ELISA Kit); type: in vivo
# Experimental: Insulin concentration in the plasma was determined by Rat INS ELISA Kit (Zeye Biotechnology Co., Ltd., Shanghai, China). All the procedures were conducted according to manufacturers’ instructions. Test specimens (plasma samples, blank and calibration samples) were added to an antibody-coated 96-well plate followed by addition of biological agent and enzyme conjugate solution, these mixtures incubated 30 min at 37 °C. The plate was then washed after incubation and a mixture of chromogenic reagent A and B was added. Optical density values at 450 nm were measured after terminating the reaction, and insulin concentrations were calculated according to the standard curve within a range of 0–20 mU/L (0, 1.25, 2.5, 5, 10, 20 mU/L).
# [3] = Pharmacokinetic measurements in T2DM rats (plasma concentrations by UPLC-MS/MS, two-compartment PK model); type: in vivo; settings: for C5ohsax, observed plasma concentration: individual rats
# Experimental: . Plasma was obtained by centrifugation at 3000 r/min and stored at −80 °C until analysis.
# Plasma concentrations of analytes were determined using the UPLC-MS/MS method above. […].
# [4] = Stability of analytes in QC rat plasma (UPLC-MS/MS); type: physicochemical; settings: for Stability, autosampler at 4 °C for up to 16 h (% of nominal): extracted plasma samples; for Stability, autosampler at 4 °C for up to 16 h (% of nominal) / Stability, 4 °C for 12 h (% of nominal) / Stability, freeze-thaw three cycles (% of nominal) / Stability, room temperature for 4 h (% of nominal) / Stability, −80 °C for 7 days (% of nominal): n = 3; for Stability, 4 °C for 12 h (% of nominal) / Stability, freeze-thaw three cycles (% of nominal) / Stability, room temperature for 4 h (% of nominal) / Stability, −80 °C for 7 days (% of nominal): rat plasma; for stability in plasma under storage conditions: room temperature (25 °C) 4 h, 4 °C 12 h, −80 °C 7 days, three freeze-thaw cycles, autosampler 4 °C up to 16 h
# Experimental: The stability of analytes in QC plasma was evaluated by analyzing replicates (n = 3) of LQC, MQC, HQC samples placed on storage for 4 h at room temperature (25 °C), for 12 h at 4 °C, for 7 days at −80 °C, and after three freeze-thaw cycles from −80 °C to room temperature. […]
# [5] = Plasma glucose concentration in T2DM rats (glucose oxidase method); type: in vivo
# Experimental: Glucose concentration in the plasma was determined by Glucose test kit (glucose oxidase method, Rongsheng biological Pharmaceutical Co.,Ltd, Shanghai, China). All the procedures were conducted according to manufacturers’ instructions. All test specimens (plasma samples, blank and calibration samples) were done in flat bottom 96 well microplates; 2.5 µL serum or calibration, 250 µL solution were pipetted into each well of the microplate, and the blank control contain water. The results were tested at 37 °C for 10 min and an absorbance value of 505 nm in a continuous monitoring micro plate reader. Glucose concentration (mmol/L) = (sample tube absorbent/calibration tube absorbent) × calibration fluid concentration (5.55 mmol/L). All experiments were repeated two duplicates.
# [6] = T2DM rats, i.v. 0.5 mg/kg 5-OH SAX, Subject1, Subject2, Subject3, 0.5 mg/kg
# [7] = T2DM rats, i.v. 0.5 mg/kg 5-OH SAX, two-compartment model, mean (n = 3)
# [8] = high QC: spiked 2000 ng/mL SAX, 400 ng/mL 5-OH SAX
# [9] = low QC: spiked 15 ng/mL SAX, 3 ng/mL 5-OH SAX
# [10] = i.g. 10 mg/kg SAX vs 0.5% CMC-Na
# [11] = T2DM rats, i.g. 10 mg/kg SAX, two-compartment model with first order absorption, mean (n = 3)
compound,measurement,setting,value
"N#C[C@@H]1C[C@@H]2C[C@@H]2N1C(=O)[C@@H](N)C12CC3CC(O)(CC(O)(C3)C1)C2 [5-OH SAX, 5-hydroxy Saxagliptin]",systemic exposure in plasma relative to the parent drug SAX,[1]; after SAX,about 3 times
same,insulin compared to the control group,"[2]; tail vein 0.5 mg/kg 5-OH SAX vs saline, within the sampling range",no significant differences
same,"AUC, individual rats",[3]; [6],691.49 ng·h/mL and 452.17 ng·h/mL and 611.48 ng·h/mL
same,"Cl2, individual rats",[3]; [6],8.2463 mL/min/kg and 8.554 mL/min/kg and 6.7797 mL/min/kg
same,"Cl, individual rats",[3]; [6],12.051 mL/min/kg and 18.4298 mL/min/kg and 13.628 mL/min/kg
same,"K12, individual rats",[3]; [6],4.85 h⁻¹ and 2.93 h⁻¹ and 2.76 h⁻¹
same,"K21, individual rats",[3]; [6],3.41 h⁻¹ and 3.53 h⁻¹ and 3.31 h⁻¹
same,"V2, individual rats",[3]; [6],0.14522 L/kg and 0.14545 L/kg and 0.12277 L/kg
same,"V, individual rats",[3]; [6],0.10199 L/kg and 0.17509 L/kg and 0.14739 L/kg
same,"t1/2a, individual rats",[3]; [6],3 min and 3.6 min and 4.2 min
same,"t1/2β, individual rats",[3]; [6],23.4 min and 19.8 min and 22.2 min
same,"C5ohsax, observed plasma concentration","[3]; T2DM rats, i.v. 0.5 mg/kg 5-OH SAX, nominal time 0.08 h, 0.5 mg/kg",1610.00 ng/mL and 1240.00 ng/mL
same,"C5ohsax, observed plasma concentration","[3]; T2DM rats, i.v. 0.5 mg/kg 5-OH SAX, nominal time 0.17 h, 0.5 mg/kg",972.00 ng/mL and 684.00 ng/mL and 900.00 ng/mL
same,"C5ohsax, observed plasma concentration","[3]; T2DM rats, i.v. 0.5 mg/kg 5-OH SAX, nominal time 0.25 h, 0.5 mg/kg",595.00 ng/mL and 387.00 ng/mL and 550.00 ng/mL
same,"C5ohsax, observed plasma concentration","[3]; T2DM rats, i.v. 0.5 mg/kg 5-OH SAX, nominal time 0.50 h, 0.5 mg/kg",295.00 ng/mL and 192.00 ng/mL and 235.00 ng/mL
same,"C5ohsax, observed plasma concentration","[3]; T2DM rats, i.v. 0.5 mg/kg 5-OH SAX, nominal time 0.75 h, 0.5 mg/kg",150.00 ng/mL and 91.70 ng/mL and 149.00 ng/mL
same,"C5ohsax, observed plasma concentration","[3]; T2DM rats, i.v. 0.5 mg/kg 5-OH SAX, nominal time 2.00 h, 0.5 mg/kg",20.60 ng/mL and 8.16 ng/mL and 11.60 ng/mL
same,AUC,[3]; [7],585.04 ng·h/mL
same,CL2 (clearance rate of peripheral compartment),[3]; [7],7.86 mL/min/kg
same,CL (clearance rate of central compartment),[3]; [7],14.703 mL/min/kg
same,Cmax,[3]; [7],3716.88 ng/mL
same,K12,[3]; [7],3.51 h⁻¹
same,K21,[3]; [7],3.42 h⁻¹
same,V2 (apparent distribution volume of peripheral compartment),[3]; [7],0.13781 L/kg
same,V (apparent distribution volume of central compartment),[3]; [7],0.14149 L/kg
same,t1/2a (distribution phase half-life),[3]; [7],3.6 min
same,t1/2β (elimination half-life),[3]; [7],21.6 min
same,"Stability, autosampler at 4 °C for up to 16 h (% of nominal)",[4]; [8],101.22 ± 2.47%
same,"Stability, autosampler at 4 °C for up to 16 h (% of nominal)",[4]; [9],100.44 ± 3.10%
same,"Stability, 4 °C for 12 h (% of nominal)",[4]; [8],99.32 ± 2.66%
same,"Stability, freeze-thaw three cycles (% of nominal)",[4]; [8],95.79 ± 2.16%
same,"Stability, room temperature for 4 h (% of nominal)",[4]; [8],98.51 ± 2.19%
same,"Stability, −80 °C for 7 days (% of nominal)",[4]; [8],97.49 ± 2.52%
same,"Stability, 4 °C for 12 h (% of nominal)",[4]; [9],100.67 ± 2.52%
same,"Stability, freeze-thaw three cycles (% of nominal)",[4]; [9],94.89 ± 2.91%
same,"Stability, room temperature for 4 h (% of nominal)",[4]; [9],99.78 ± 2.22%
same,"Stability, −80 °C for 7 days (% of nominal)",[4]; [9],95.11 ± 4.55%
same,stability in plasma under storage conditions,[4],remained stable
same,blood glucose compared to the control group,"[5]; tail vein 0.5 mg/kg 5-OH SAX vs saline, 0.08, 0.17, 0.25 and 0.5 h (P<0.05)",significant differences
"N#C[C@@H]1C[C@@H]2C[C@@H]2N1C(=O)[C@@H](N)C12CC3CC(CC(O)(C3)C1)C2 [SAX, Saxagliptin]",share of the dose metabolized in the liver by CYP3A4/5 to 5-OH SAX,[1],about 50%
same,bioavailability,[1]; oral 5 mg SAX,75%
same,insulin compared to the control group,[2]; [10],no significant differences
same,CL2 (clearance rate of peripheral compartment),[3]; [11],284.8403 mL/min/kg
same,CL (clearance rate of central compartment),[3]; [11],54.0967 mL/min/kg
same,K12,[3]; [11],6.62 h⁻¹
same,K21,[3]; [11],1.07 h⁻¹
same,V2 (apparent distribution volume of peripheral compartment),[3]; [11],18.3933 L/kg
same,V (apparent distribution volume of central compartment),[3]; [11],2.30724 L/kg
same,Tmax,"[3]; rat, plasma, po, 10 mg/kg",6.6 min
same,half-life,"[3]; rat, plasma, po, 10 mg/kg, T2DM rats, i.g. 10 mg/kg SAX, two-compartment model with first order absorption, mean (n = 3), read-out: t1/2Ka (absorption phase half-life) (converted)",4.2 min
same,half-life,"[3]; rat, plasma, po, 10 mg/kg, T2DM rats, i.g. 10 mg/kg SAX, two-compartment model with first order absorption, mean (n = 3), read-out: t1/2a (distribution phase half-life) (converted)",4.8 min
same,half-life,"[3]; rat, plasma, po, 10 mg/kg, T2DM rats, i.g. 10 mg/kg SAX, two-compartment model with first order absorption, mean (n = 3), read-out: t1/2β (elimination half-life) (converted)",368 min
same,AUC,"[3]; rat, plasma, po, 10 mg/kg, read-out: AUC",3280 ng·h/mL
same,Cmax,"[3]; rat, plasma, po, 10 mg/kg, read-out: Cmax",2200 ng/mL
same,"Stability, autosampler at 4 °C for up to 16 h (% of nominal)",[4]; [8],98.05 ± 2.04%
same,"Stability, autosampler at 4 °C for up to 16 h (% of nominal)",[4]; [9],99.02 ± 2.00%
same,"Stability, 4 °C for 12 h (% of nominal)",[4]; [8],99.09 ± 2.02%
same,"Stability, freeze-thaw three cycles (% of nominal)",[4]; [8],95.84 ± 1.52%
same,"Stability, room temperature for 4 h (% of nominal)",[4]; [8],99.59 ± 3.47%
same,"Stability, −80 °C for 7 days (% of nominal)",[4]; [8],98.07 ± 2.07%
same,"Stability, 4 °C for 12 h (% of nominal)",[4]; [9],100.60 ± 2.29%
same,"Stability, freeze-thaw three cycles (% of nominal)",[4]; [9],96.71 ± 1.93%
same,"Stability, room temperature for 4 h (% of nominal)",[4]; [9],99.02 ± 2.02%
same,"Stability, −80 °C for 7 days (% of nominal)",[4]; [9],98.56 ± 2.14%
same,stability in plasma under storage conditions,[4],remained stable
same,blood glucose compared to the control group,[5]; [10],no significant differences
